The text below walks through data of article PMC9380430, “Aaptamine – a dual acetyl – and butyrylcholinesterase inhibitor as potential anti-Alzheimer’s disease agent” (Pharmaceutical Biology, 2022).

Experiment [1] concerns AlCl3-induced zebrafish AD model. Put plainly: AlCl3-induced zebrafish AD model, behaviour assay. The class given is in vivo. The settings on record: + 100 μM AlCl3, 3 d; for speed change after light stimulus: model 1.38 mm/s, control 2.56 mm/s; for movement distance during 60 min: model 4968 mm, control 9219 mm. The procedure:
Briefly, the 3–6 dpf zebrafish larvae were randomly placed in a 6-well microplate at a density of 30 zebrafish per well and treated with 100 μM AlCl3 to establish the AD model. […] The control group was maintained in the reverse osmosis water with 0.5% DMSO while the model group was treated with 100 μM AlCl3 containing 0.5% DMSO. […] After 3 d, the distance and speed change after light stimulus alteration were analysed and recorded for three rhythmic light within 60 min (10 min darkness and 10 min illumination alternately) using viewpoint behaviour analyser (Zebralab V3, ViewPoint Life Sciences Co., Ltd., Lyons, France). The protocol for this study involving animals and their maintenance was approved by the Animal Care and Use Committee of Shandong Academy of Sciences (No.00612). Efficacy on motility (%)=[Dsample group−Dmodel group]/[Duntreated group−Dmodel group]×100.
D is the movement distance of zebrafish during 60 min.
Efficacy on speed change (%) = [Vsample group – Vmodel group]/[Vuntreated group – Vmodel group] × 100. V is the average velocity (mm/s) of different groups which was obtained by recording the movement distance of every min for every zebrafish during 60 min. All data are expressed as mean ± SEM and analysed by GraphPad Prism version 7.0 software (Graphpad Software Inc., La Jolla, CA). Differences between groups were examined for statistical significance using one‐way ANOVA with Tukey’s post hoc test.

For experiment [2], the target named is T1, AChE (Electrophorus electricus, UniProt O42275).
T1 construct: AChE (200 U/g from electric eel); purchased Macklin Inc. (Shanghai, China)
T1 sequence (O42275 24-633): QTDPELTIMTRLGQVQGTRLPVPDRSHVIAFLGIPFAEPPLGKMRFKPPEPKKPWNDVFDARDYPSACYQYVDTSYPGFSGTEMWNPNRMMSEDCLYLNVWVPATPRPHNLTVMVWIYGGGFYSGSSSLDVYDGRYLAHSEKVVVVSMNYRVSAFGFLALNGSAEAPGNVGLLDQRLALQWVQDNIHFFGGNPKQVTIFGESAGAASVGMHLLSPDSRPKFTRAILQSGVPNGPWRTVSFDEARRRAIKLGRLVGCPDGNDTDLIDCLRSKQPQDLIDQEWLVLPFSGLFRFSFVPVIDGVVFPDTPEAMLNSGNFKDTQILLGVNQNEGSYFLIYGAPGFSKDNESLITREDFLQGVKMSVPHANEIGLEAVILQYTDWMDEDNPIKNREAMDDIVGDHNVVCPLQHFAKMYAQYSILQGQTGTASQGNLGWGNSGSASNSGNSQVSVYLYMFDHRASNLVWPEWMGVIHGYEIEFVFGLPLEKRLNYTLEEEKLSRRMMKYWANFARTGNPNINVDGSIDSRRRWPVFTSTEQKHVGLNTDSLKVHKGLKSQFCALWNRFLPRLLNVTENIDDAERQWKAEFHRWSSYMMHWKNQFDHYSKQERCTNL
Put plainly: Surface plasmon resonance (SPR) assay, AChE. In kind it is binding. The conditions noted are these: Biacore T100, steady-state affinity fitting; read-out: Kd (equilibrium dissociation constant) for AChE. The procedure: (§1) The experiments were carried out using Biacore T100 with the Sensor Chip CM5. The chip surface was activated following standard NHS + EDC with Biacore PBS-EP (0.02 M Phosphate buffer with 2.7 mM KCl, 0.137 M NaCl and 0.05% P20) buffer used as the running buffer. 7000 RU of untagged AChE or 6600 RU of untagged BuChE was immobilized per flow cell and 100 μg/mL AChE or 20 μg/mL BuChE was injected. The cholinesterase protein is coupled to the sensor chip CM5 by amine coupling. 1 M (pH 8.5) ethanolamine-HCl was used to seal off the active group. Aaptamine was injected into the protein channel and blank channel at the following doses: 100, 50, 25, 12.5, 6.25, 3.125 and 0.39 μM at a flow rate of 30 μL/min. The protein binding period was set to 1 min, and the dissociation period was set to 2 min. The affinity was obtained by fitting the binding data using Biacore T100 Evaluation Software version 3.0 (Chicago, USA).
(In general: In SPR one partner is held on a chip, and binding of the other changes the refractive index at the surface.)

For experiment [3], the target named is T2, BuChE (Equus caballus, UniProt P81908).
T2 construct: BuChE (10 U/mg from horse serum); purchased Shanghai Yuanye Bio-Technology (Shanghai, China); host or cells: horse serum
T2 sequence (P81908 whole entry): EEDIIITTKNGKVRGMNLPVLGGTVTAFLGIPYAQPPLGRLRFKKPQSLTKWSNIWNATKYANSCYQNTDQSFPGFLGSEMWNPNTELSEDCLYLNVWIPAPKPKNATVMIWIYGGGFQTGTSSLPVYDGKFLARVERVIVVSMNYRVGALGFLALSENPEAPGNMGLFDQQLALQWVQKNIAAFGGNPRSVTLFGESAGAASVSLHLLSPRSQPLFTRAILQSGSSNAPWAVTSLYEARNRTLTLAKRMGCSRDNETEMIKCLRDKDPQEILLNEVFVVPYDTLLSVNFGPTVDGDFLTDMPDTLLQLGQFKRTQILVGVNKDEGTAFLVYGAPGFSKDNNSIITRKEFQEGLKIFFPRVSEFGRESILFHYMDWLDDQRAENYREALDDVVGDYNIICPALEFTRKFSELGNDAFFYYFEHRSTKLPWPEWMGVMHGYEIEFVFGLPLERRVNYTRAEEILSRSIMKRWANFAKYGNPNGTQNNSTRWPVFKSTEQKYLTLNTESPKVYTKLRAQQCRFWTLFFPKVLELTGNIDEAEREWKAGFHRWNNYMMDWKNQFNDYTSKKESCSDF
Put plainly: Surface plasmon resonance (SPR) assay, BuChE. The class given is binding. The conditions noted are these: Biacore T100, steady-state affinity fitting; read-out: Kd (equilibrium dissociation constant) for BuChE. The procedure:
as §1

The test system of experiment [4] is nicotinic acetylcholine receptors (nAChRs). The settings on record: ref Kudryavtsev et al. [2014]; cited from earlier work.
Experiment [5] shares this test system. The settings on record: ref Kudryavtsev et al. [2014]; cited from earlier work. The source holds these as a separate data set.
Experiment [6] deals with T1, AChE. Put plainly: biochemical. The settings on record: substrate ATChI, 37 °C; read-out: IC50 against AChE. The method, then:
(§2) AChE (200 U/g from electric eel) and 5,5′-dithiobis(2-nitrobenzoic acid) (DNTB) were purchased from Macklin Inc. (Shanghai, China). BuChE (10 U/mg from horse serum), acetylthiocholine iodide (ATChI) and butyrylthiocholine iodide (BTChI) were purchased from Shanghai Yuanye Bio-Technology (Shanghai, China).
(§3) The lyophilized powder of AChE and BuChE was dissolved in protein stabilizer (0.1 g BSA dissolved in 100 mL PBS) to form the storage concentration of 10 U/mL and then diluted to the required concentrations. […] After 30 min of incubation at 37 °C, 10 μL of substrate ATChI or BTChI (10 mM) were added and incubated at 37 °C for 30 min. […] For the blank control group, the assays were carried out with wells containing all components except AChE and BuChE. […] All experiments were performed in triplicate.

The target in experiment [7] is T2, BuChE. Put plainly: biochemical. The settings on record: substrate BTChI, 37 °C; read-out: IC50 against BuChE. The method, then:
as §2, §3

Experiment [8] deals with T1, AChE. Put plainly: Kinetic study of AChE inhibition (Lineweaver-Burk, secondary plot). The class given is biochemical. The method, then:
(§4) To clarify the mechanism of action of aaptamine, reciprocal plots of 1/[velocity] vs. 1/[substrate] (Lineweaver-Burk plots) were constructed at different concentrations of the substrate ATChI or BTChI (0, 1.25, 2.5, 5, 10 and 25 mM) and aaptamine (0, 5, 20 and 40 μM). Meanwhile, the parallel experiment was also carried out without aaptamine. The remaining procedure was the same as that of described in cholinesterases inhibition assay. The data were plotted on a Lineweaver–Burk diagram using Microsoft Excel 2016 to reveal the mechanism of inhibition. The steady-state inhibition constant Ki (intercept on the x-axis) was determined by the secondary plot of slope vs. the concentrations of inhibitor.

The target in experiment [9] is T2, BuChE. Put plainly: Kinetic study of BuChE inhibition (Lineweaver-Burk, secondary plot). The class given is biochemical. The method, then: as §4
Experiment [10] has as its system AChE. The conditions noted are these: ref Moodie et al. [2019]; read-out: IC50 against AChE (literature); cited from earlier work.
For experiment [11], the system named is BuChE. The conditions noted are these: ref Moodie et al. [2019]; read-out: IC50 against BuChE (literature); cited from earlier work.

Turning to `COc1cc2ccnc3c2c(c1OC)NC=C3` [aaptamine], the dyskinesia recovery rate in [1] (5 μM) is recorded as 34.8%; in [1] (10 μM), 58.8%; in experiment [1] (20 μM), 60.0%. The entries for the “efficacy on speed change” value in [1] (5 μM), in [1] (10 μM) and in experiment [1] (20 μM) were 34.7%, 58.5% and 60.2%, respectively. Besides, the “speed change after light stimulus” value in [1] (5 μM) turned out to be 1.79 mm/s; in experiment [1] (10 μM), 2.07 mm/s; in [1] (20 μM), 2.09 mm/s. Also, the “movement distance during 60 min” value in experiment [1] (5 μM) was determined as 6447 mm; in [1] (10 μM), 7466 mm; in experiment [1] (20 μM) it was 7517 mm. Besides, the Kd at AChE [2] stood at 87.6 µM; at BuChE [3], 10.7 µM. The “inhibitory effect on nAChRs of humans” value in [4] was “weak inhibitory effect”. The “inhibitory effect on nAChRs of Torpedo californica” value in experiment [5] was “weak inhibitory effect”. Also, the IC50 at AChE [6] was determined as 16 µM; at BuChE [7], 4.6 µM. Besides, the “inhibition type towards AChE” value against AChE [8] (Lineweaver-Burk plots) is “mixed-type inhibition”. For the same molecule, the Ki at AChE [8] (secondary plot of slope vs inhibitor concentration, substrate ATChI, read-out: steady-state inhibition constant Ki against AChE) came to 6.96 ± 0.04 µM; on BuChE [9] (secondary plot of slope vs inhibitor concentration, substrate BTChI, read-out: steady-state inhibition constant Ki against BuChE), 6.35 ± 0.02 µM. Further, at BuChE [9] (Lineweaver-Burk plots), the “inhibition type towards BuChE” value was “mixed-type inhibition”.
On to `COc1cc2c(cc1OC)C(=O)C(CC1CCN(Cc3ccccc3)CC1)C2` (centres unmarked) [donepezil, reference compound], for which, in [1] (8 μM), the dyskinesia recovery rate amounted to 63.7% and the “movement distance during 60 min” value is 7675 mm. In [1] (8.0 μM), the “efficacy on speed change” value was 63.6% and the “speed change after light stimulus” value turned out to be 2.13 mm/s.
On to `COc1ccc2c3c1O[C@H]1C[C@@H](O)C=C[C@@]31CCN(C)C2` [galantamine], for which the IC50 with AChE [10] was […].
As to `CCN(C)C(=O)Oc1cccc([C@H](C)N(C)C)c1` [rivastigmine], the values for the IC50 in the experiment with BuChE [11] and with AChE [10] were […] and […], respectively.

As usually defined, the Kd is the constant that tells how readily two partners part at equilibrium. The term IC50 denotes the concentration needed to halve the response being measured. The term Ki denotes a measure of affinity in units of concentration, obtained from inhibition or displacement.
